Numbers after ± are expanded uncertainties.
Assay: excess molar enthalpy (molar enthalpy of mixing); xn = mol fraction of the nth substance listed
Settings: 100 kPa, Liquid, Calvet calorimetry

[Au] [gold] + [Ga]
excess molar enthalpy [kcal/mol]
Settings	1223 K	1323 K
x1 = 0.03042	-0.3007 ± 0.00263	–
x1 = 0.03979	–	-0.4015 ± 0.00335
x1 = 0.0642	-0.6272 ± 0.00502	–
x1 = 0.07894	–	-0.7875 ± 0.00621
x1 = 0.09685	-0.9732 ± 0.00765	–
x1 = 0.116	–	-1.149 ± 0.00908
x1 = 0.1281	-1.308 ± 0.0103	–
x1 = 0.1512	–	-1.492 ± 0.0117
x1 = 0.1606	-1.622 ± 0.0127	–
x1 = 0.1843	–	-1.794 ± 0.0141
x1 = 0.1915	-1.907 ± 0.0151	–
x1 = 0.2172	–	-2.085 ± 0.0163
x1 = 0.2205	-2.139 ± 0.0167	–
x1 = 0.2492	-2.37 ± 0.0186	-2.366 ± 0.0184
x1 = 0.2762	-2.589 ± 0.0203	–
x1 = 0.2785	–	-2.596 ± 0.0203
x1 = 0.3018	-2.787 ± 0.0217	–
x1 = 0.3074	–	-2.819 ± 0.022
x1 = 0.3274	-2.98 ± 0.0232	–
x1 = 0.3345	–	-3.014 ± 0.0234
x1 = 0.3516	-3.153 ± 0.0239	–
x1 = 0.3597	–	-3.179 ± 0.0239
x1 = 0.3741	-3.296 ± 0.0263	–
x1 = 0.3836	–	-3.319 ± 0.0263
x1 = 0.3958	-3.404 ± 0.0263	–
x1 = 0.4061	–	-3.431 ± 0.0287
x1 = 0.4164	-3.509 ± 0.0287	–
x1 = 0.4283	–	-3.53 ± 0.0287
x1 = 0.4363	-3.587 ± 0.0287	–
x1 = 0.449	–	-3.615 ± 0.0311
x1 = 0.4553	-3.665 ± 0.0311	–
x1 = 0.4692	–	-3.695 ± 0.0335
x1 = 0.4737	-3.733 ± 0.0311	–
x1 = 0.4871	-3.783 ± 0.0335	–
x1 = 0.4882	–	-3.752 ± 0.0359
x1 = 0.4991	–	-3.797 ± 0.0359
x1 = 0.5003	-3.814 ± 0.0335	–
x1 = 0.5096	–	-3.825 ± 0.0382
x1 = 0.5139	-3.826 ± 0.0359	–
x1 = 0.5203	–	-3.85 ± 0.0406
x1 = 0.527	-3.839 ± 0.0382	–
x1 = 0.5307	–	-3.87 ± 0.0406
x1 = 0.5395	-3.851 ± 0.0382	–
x1 = 0.5412	–	-3.88 ± 0.043
x1 = 0.5514	–	-3.89 ± 0.0454
x1 = 0.5515	-3.86 ± 0.0406	–
x1 = 0.5621	–	-3.89 ± 0.0454
x1 = 0.5631	-3.88 ± 0.0406	–
x1 = 0.5727	–	-3.9 ± 0.0478
x1 = 0.5743	-3.88 ± 0.043	–
x1 = 0.5829	–	-3.9 ± 0.0502
x1 = 0.585	-3.88 ± 0.0454	–
x1 = 0.5927	–	-3.89 ± 0.0526
x1 = 0.5953	-3.88 ± 0.0478	–
x1 = 0.6028	–	-3.88 ± 0.055
x1 = 0.6053	-3.88 ± 0.0478	–
x1 = 0.6129	–	-3.87 ± 0.055
x1 = 0.6147	-3.88 ± 0.0502	–
x1 = 0.6231	–	-3.84 ± 0.0574
x1 = 0.6239	-3.87 ± 0.0526	–
x1 = 0.6306	-3.86 ± 0.0526	–
x1 = 0.637	-3.85 ± 0.055	–
x1 = 0.6431	-3.83 ± 0.055	–

[Ag] [silver] + [Ga]
Settings	excess molar enthalpy [kcal/mol]
1223 K, x1 = 0.04915	0.0514 ± 0.00717
1223 K, x1 = 0.0956	0.0619 ± 0.0129
1223 K, x1 = 0.1383	0.0729 ± 0.0186
1223 K, x1 = 0.1792	0.0681 ± 0.0239
1223 K, x1 = 0.2178	0.0629 ± 0.0287
1223 K, x1 = 0.2552	0.0301 ± 0.0335
1223 K, x1 = 0.2905	-0.00215
1223 K, x1 = 0.3228	-0.0502 ± 0.0406
1223 K, x1 = 0.3528	-0.0958 ± 0.043
1223 K, x1 = 0.3809	-0.14 ± 0.0454
1223 K, x1 = 0.4081	-0.193 ± 0.0502
1223 K, x1 = 0.4336	-0.252 ± 0.0526
1223 K, x1 = 0.4572	-0.308 ± 0.0526
1223 K, x1 = 0.4789	-0.346 ± 0.055
1223 K, x1 = 0.4992	-0.389 ± 0.0574
1223 K, x1 = 0.5189	-0.447 ± 0.0598
1223 K, x1 = 0.5372	-0.494 ± 0.0621
1223 K, x1 = 0.5548	-0.535 ± 0.0645
1223 K, x1 = 0.5712	-0.574 ± 0.0645
1323 K, x1 = 0.05283	0.0533 ± 0.00765
1323 K, x1 = 0.1006	0.0992 ± 0.0143
1323 K, x1 = 0.1464	0.112 ± 0.0206
1323 K, x1 = 0.1894	0.107 ± 0.0263
1323 K, x1 = 0.2288	0.0978 ± 0.0311
1323 K, x1 = 0.2649	0.0846 ± 0.0359
1323 K, x1 = 0.2996	0.0519 ± 0.0406
1323 K, x1 = 0.3321	0.00598 ± 0.043
1323 K, x1 = 0.3634	-0.0519 ± 0.0478
1323 K, x1 = 0.3921	-0.0949 ± 0.0502
1323 K, x1 = 0.4189	-0.144 ± 0.0526
1323 K, x1 = 0.4443	-0.198 ± 0.055
1323 K, x1 = 0.4687	-0.227 ± 0.0574
1323 K, x1 = 0.4964	-0.274 ± 0.0621
1323 K, x1 = 0.5168	-0.312 ± 0.0621
1323 K, x1 = 0.5359	-0.344 ± 0.0645
1323 K, x1 = 0.5558	-0.386 ± 0.0669

Reference: the NIST ThermoML archive (doi:10.1016/j.jct.2016.12.020)
